Earlier results in patent US10517855B1, “Interleukins activity inhibiting composition” (priority 2019, dated 2019).

Key:
[1] = test system: apomorphine-induced stereotypy; details: preclinical studies
[2] = preclinical studies
[3] = test system: MK-801-induced hyperlocomotion, working memory deficit and social withdrawal; details: preclinical studies
[4] = test system: amphetamine-induced lethality and stereotypy; details: preclinical studies
[5] = test system: haloperidol-induced catalepsy; details: preclinical studies
[6] = test system: avian malaria; details: in vivo

| Structure (SMILES) | apomorphine-induced stereotypy [1] | anxiolytic-like effects [2] | MK-801-induced hyperlocomotion [3] | MK-801-induced social withdrawal [3] | MK-801-induced working memory deficit [3] | amphetamine-induced lethality [4] | amphetamine-induced stereotypy [4] | haloperidol-induced catalepsy [5] | activity against avian malaria [6] |
| --- | --- | --- | --- | --- | --- | --- | --- | --- | --- |
| COC(=O)C1=CO[C@@H](C)[C@@H]2Cn3ccc4c5ccccc5nc-4c3C[C@H]12 [Alstonine] | attenuates | possesses anxiolytic-like effects | attenuates | attenuates | attenuates | attenuates | attenuates | attenuates |  |
| C/C=C1/CN2CC[C@@]34c5cc(O)ccc5N(C)[C@]35OC[C@@]4(C(=O)OC)[C@H]1C[C@H]25 [akuammine] |  |  |  |  |  |  |  |  | inactive |
